Assay results from PubChem BioAssay AID248 (DTP/NCI, 2004).
Values joined by “and” are separate entries in the source; they are usually repeats but may differ in a detail not shown here. Equal values may be shown once. Toxic doses and inconclusive results are not listed.

Tested on: L1210 leukemia ip in BDF1 mice, survival T/C
Assay: NCI In Vivo Anticancer Drug Screen. Data for tumor model L1210 Leukemia (intraperitoneal) in B6D2F1 (BDF1) mice
Settings: endpoint: mean survival time, higher = longer survival
Outline: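 Transplantable tumor model; survival measured in treated vs vehicle control mice. Value = treated/control.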

[1] = dose: 100.0 mg/kg/injection, schedule: Q01DX009 (ip), vehicle: saline
[2] = dose: 200.0 mg/kg/injection, schedule: Q01DX009 (ip), vehicle: saline
[3] = dose: 400.0 mg/kg/injection, schedule: Q01DX009 (ip), vehicle: saline
[4] = dose: 100.0 mg/kg/injection, schedule: Q01DX009 (ip), vehicle: Klucel (hydroxypropylcellulose) (HPC)
[5] = dose: 200.0 mg/kg/injection, schedule: Q01DX009 (ip), vehicle: Klucel (hydroxypropylcellulose) (HPC)
[6] = dose: 400.0 mg/kg/injection, schedule: Q01DX009 (ip), vehicle: Klucel (hydroxypropylcellulose) (HPC)
[7] = dose: 100.0 mg/kg/injection, schedule: Q01DX001 (ip), vehicle: carboxymethylcellulose (CMC)
[8] = dose: 200.0 mg/kg/injection, schedule: Q01DX001 (ip), vehicle: carboxymethylcellulose (CMC)
[9] = dose: 25.0 mg/kg/injection, schedule: Q01DX009 (ip), vehicle: Klucel (hydroxypropylcellulose) (HPC)
[10] = dose: 50.0 mg/kg/injection, schedule: Q01DX009 (ip), vehicle: Klucel (hydroxypropylcellulose) (HPC)
[11] = dose: 100.0 mg/kg/injection, schedule: Q04DX003 (ip), vehicle: Klucel (hydroxypropylcellulose) (HPC)
[12] = dose: 400.0 mg/kg/injection, schedule: Q01DX001 (ip), vehicle: carboxymethylcellulose (CMC)
[13] = dose: 100.0 mg/kg/injection, schedule: Q04DX003 (ip), vehicle: saline with Tween-80
[14] = dose: 200.0 mg/kg/injection, schedule: Q04DX003 (ip), vehicle: saline with Tween-80
[15] = dose: 200.0 mg/kg/injection, schedule: Q04DX003 (ip), vehicle: Klucel (hydroxypropylcellulose) (HPC)
[16] = dose: 400.0 mg/kg/injection, schedule: Q04DX003 (ip), vehicle: Klucel (hydroxypropylcellulose) (HPC)

## OC1CCNc2ccccc21 (stereo not given)
[1]
  T/C: 104 % of control
[2]
  T/C: 105 % of control
[3]
  T/C: 112 % of control

## CCOC(=O)CCC(NC(=O)c1ccc(N(C)Cc2cnc3nc(NC(C)=O)cc(NC(C)=O)c3n2)cc1)C(=O)OCC (stereo not given)
dose: 100.0 mg/kg/injection, schedule: Q01DX001 (ip), vehicle: other
  T/C: 102 % of control
dose: 200.0 mg/kg/injection, schedule: Q01DX001 (ip), vehicle: other
  T/C: 93 % of control
dose: 400.0 mg/kg/injection, schedule: Q01DX001 (ip), vehicle: other
  T/C: 95 % of control

## Nc1nc2c(ncn2-c2cccc(NS(=O)(=O)c3cccc(S(=O)(=O)F)c3)c2)c(=O)[nH]1
dose: 25.0 mg/kg/injection, schedule: Q01DX001 (ip), vehicle: Klucel (hydroxypropylcellulose) (HPC)
  T/C: 96 % of control
dose: 50.0 mg/kg/injection, schedule: Q01DX001 (ip), vehicle: Klucel (hydroxypropylcellulose) (HPC)
  T/C: 98 % of control
dose: 100.0 mg/kg/injection, schedule: Q01DX001 (ip), vehicle: Klucel (hydroxypropylcellulose) (HPC)
  T/C: 94 % of control

## Cn1cnc2c1c(=O)[nH]c(=O)n2C
[4]
  T/C: 93 % of control
[1]
  T/C: 95 % of control
[5]
  T/C: 86 % of control
[2]
  T/C: 92 % of control
[6]
  T/C: 89 % of control

## COC(C)C1C([N+](C)(C)C)CS1(=O)=O (stereo not given)
dose: 75.0 mg/kg/injection, schedule: Q01DX001 (ip), vehicle: saline
  T/C: 97 % of control
dose: 150.0 mg/kg/injection, schedule: Q01DX001 (ip), vehicle: saline
  T/C: 94 % of control

## Nc1c(Cl)ncn2[nH]c(=O)nc12
[7]
  T/C: 96 % of control
[8]
  T/C: 100 % of control

## CC1(C)N=C(N)N=C(N)N1c1ccc(CNC(=O)Nc2cccc(S(=O)(=O)F)c2)cc1
dose: 6.25 mg/kg/injection, schedule: Q01DX009 (ip), vehicle: saline
  T/C: 116 % of control
dose: 12.5 mg/kg/injection, schedule: Q01DX009 (ip), vehicle: saline
  T/C: 119 % of control
dose: 50.0 mg/kg/injection, schedule: Q01DX009 (ip), vehicle: saline
  T/C: 154 % of control
dose: 88.0 mg/kg/injection, schedule: Q04DX003 (ip), vehicle: saline
  T/C: 113 % of control

## COc1ccc2c(c1)CCC1=C2CCC(C)(C(C)=O)C1C(=O)O (stereo not given)
[9]
  T/C: 101 % of control
dose: 25.0 mg/kg/injection, schedule: Q04DX003 (ip), vehicle: Klucel (hydroxypropylcellulose) (HPC)
  T/C: 97 % of control
[10]
  T/C: 98 % of control
dose: 50.0 mg/kg/injection, schedule: Q04DX003 (ip), vehicle: Klucel (hydroxypropylcellulose) (HPC)
  T/C: 100 % of control
[4]
  T/C: 95 % of control
[11]
  T/C: 102 % of control and 87 % of control

## O=S(=O)(c1ccc(I)cc1)c1ccc(I)cc1
dose: 50.0 mg/kg/injection, schedule: Q01DX001 (ip), vehicle: carboxymethylcellulose (CMC)
  T/C: 104 % of control
[7]
  T/C: 95 % of control
[8]
  T/C: 88 % of control
[12]
  T/C: 95 % of control

## O=C(NC(=S)Nc1ccc(F)cc1)c1ccccc1F
dose: 25.0 mg/kg/injection, schedule: Q01DX009 (ip), vehicle: gum acacia
  T/C: 104 % of control
dose: 50.0 mg/kg/injection, schedule: Q01DX009 (ip), vehicle: gum acacia
  T/C: 107 % of control
dose: 100.0 mg/kg/injection, schedule: Q01DX009 (ip), vehicle: gum acacia
  T/C: 96 % of control and 105 % of control

## CN(C)N=Nc1ccc2c(c1)C(=O)NC2=O
[13]
  T/C: 96 % of control
[14]
  T/C: 99 % of control
dose: 400.0 mg/kg/injection, schedule: Q04DX003 (ip), vehicle: saline with Tween-80
  T/C: 99 % of control

## COc1ccc(C(=O)CN2C=C(C(=O)c3cc4ccccc4n3S(=O)(=O)c3ccccc3)CCC2)cc1
dose: 100.0 mg/kg/injection, schedule: Q04DX002 (ip), vehicle: saline with Tween-80
  T/C: 94 % of control
dose: 200.0 mg/kg/injection, schedule: Q04DX002 (ip), vehicle: saline with Tween-80
  T/C: 87 % of control
dose: 400.0 mg/kg/injection, schedule: Q04DX002 (ip), vehicle: saline with Tween-80
  T/C: 87 % of control

## CCN(CC)C(N)=S
[4]
  T/C: 108 % of control
[11]
  T/C: 106 % of control
[5]
  T/C: 100 % of control
[15]
  T/C: 103 % of control
[6]
  T/C: 100 % of control
[16]
  T/C: 112 % of control

## COC(=O)c1cc2ccncc2c2sc3ccccc3c12
[1]
  T/C: 97 % of control
dose: 100.0 mg/kg/injection, schedule: Q04DX003 (ip), vehicle: saline
  T/C: 90 % of control
[2]
  T/C: 93 % of control
dose: 200.0 mg/kg/injection, schedule: Q04DX003 (ip), vehicle: saline
  T/C: 92 % of control
[3]
  T/C: 95 % of control
dose: 400.0 mg/kg/injection, schedule: Q04DX003 (ip), vehicle: saline
  T/C: 90 % of control

## CCCCN1C(=O)C2CC=C3C=CN4C(C3C2C1=O)C1C(=O)N(CCCC)C(=O)C1C41CC(=O)N(CCCC)C1=O (stereo not given)
dose: 12.5 mg/kg/injection, schedule: Q01DX009 (ip), vehicle: Klucel (hydroxypropylcellulose) (HPC)
  T/C: 101 % of control
[9]
  T/C: 104 % of control
[10]
  T/C: 91 % of control
[4]
  T/C: 86 % of control
[11]
  T/C: 89 % of control
[5]
  T/C: 91 % of control
[15]
  T/C: 90 % of control
[16]
  T/C: 92 % of control

## COc1ccc(F)cc1CCl
dose: 100.0 mg/kg/injection, schedule: Q04DX002 (ip), vehicle: Klucel (hydroxypropylcellulose) (HPC)
  T/C: 98 % of control
dose: 200.0 mg/kg/injection, schedule: Q04DX002 (ip), vehicle: Klucel (hydroxypropylcellulose) (HPC)
  T/C: 98 % of control
dose: 400.0 mg/kg/injection, schedule: Q04DX002 (ip), vehicle: Klucel (hydroxypropylcellulose) (HPC)
  T/C: 86 % of control

## CCOC(=O)C(C(=O)OCC)C(C)(C)Cc1ccccc1
[4]
  T/C: 92 % of control
[5]
  T/C: 100 % of control
[15]
  T/C: 96 % of control
[6]
  T/C: 93 % of control
[16]
  T/C: 93 % of control

## COc1ccccc1NC(=O)NNC(=O)CCCC(=O)NNC(=O)Nc1ccccc1OC
dose: 50.0 mg/kg/injection, schedule: Q01DX001 (ip), vehicle: saline
  T/C: 100 % of control
dose: 100.0 mg/kg/injection, schedule: Q01DX001 (ip), vehicle: saline
  T/C: 97 % of control
dose: 200.0 mg/kg/injection, schedule: Q01DX001 (ip), vehicle: saline
  T/C: 103 % of control
dose: 400.0 mg/kg/injection, schedule: Q01DX001 (ip), vehicle: saline
  T/C: 97 % of control

## CC1(O)c2ccccc2-c2c1n([O-])c1ccccc1[n+]2=O (stereo not given)
dose: 100.0 mg/kg/injection, schedule: Q04DX003 (ip), vehicle: saline sonified
  T/C: 111 % of control
dose: 200.0 mg/kg/injection, schedule: Q04DX003 (ip), vehicle: saline sonified
  T/C: 100 % of control
dose: 400.0 mg/kg/injection, schedule: Q04DX003 (ip), vehicle: saline sonified
  T/C: 89 % of control

## CS(=O)(=O)OCCCCCOS(C)(=O)=O
dose: 5.0 mg/kg/injection, schedule: Q01DX001 (ip), vehicle: carboxymethylcellulose (CMC)
  T/C: 97 % of control
dose: 6.0 mg/kg/injection, schedule: Q01DX015 (ip), vehicle: saline
  T/C: 101 % of control
dose: 10.0 mg/kg/injection, schedule: Q01DX001 (ip), vehicle: carboxymethylcellulose (CMC)
  T/C: 100 % of control
dose: 12.0 mg/kg/injection, schedule: Q01DX015 (ip), vehicle: saline
  T/C: 110 % of control
dose: 20.0 mg/kg/injection, schedule: Q01DX001 (ip), vehicle: carboxymethylcellulose (CMC)
  T/C: 100 % of control
dose: 40.0 mg/kg/injection, schedule: Q01DX001 (ip), vehicle: carboxymethylcellulose (CMC)
  T/C: 101 % of control
dose: 50.0 mg/kg/injection, schedule: Q01DX015 (ip), vehicle: saline
  T/C: 101 % of control

## CCN(CC)c1nc2ccccc2o1
[7]
  T/C: 102 % of control
[8]
  T/C: 91 % of control
[12]
  T/C: 91 % of control

## C[C@H]1[C@H](O)[C@H]2[C@@H](CCC3=CC(=O)CC[C@@]32C)[C@@H]2CC[C@H](O)[C@@]12C
dose: 50.0 mg/kg/injection, schedule: Q01DX001 (sc), vehicle: steriod suspending solution
  T/C: 102 % of control
dose: 100.0 mg/kg/injection, schedule: Q01DX001 (sc), vehicle: steriod suspending solution
  T/C: 102 % of control
dose: 200.0 mg/kg/injection, schedule: Q01DX001 (sc), vehicle: steriod suspending solution
  T/C: 102 % of control
dose: 400.0 mg/kg/injection, schedule: Q01DX001 (sc), vehicle: steriod suspending solution
  T/C: 96 % of control

## Cn1ncc2c(=O)[nH]nnc21
[7]
  T/C: 98 % of control
[8]
  T/C: 89 % of control
[12]
  T/C: 104 % of control

## O=[N+]([O-])c1ccc(O)c(C=NCC2CCCC[N-]2)c1.O=[N+]([O-])c1ccc(O)c(C=NCC2CCCC[N-]2)c1.[Ni+2] (stereo not given)
[13]
  T/C: 90 % of control
[14]
  T/C: 90 % of control
